Data set [1] in a line: Dynamic vapor sorption (DVS) hygroscopicity. It counts as physicochemical. As to conditions: at 80% RH, 25° C. The protocol:
Form A may be observed EP-1. […] (peak temperature) which is accompanied by 5.9 wt % weight loss up to ˜150° C. in the TGA curve (FIG. 3). […] Form A is hygroscopic as indicated by water adsorption of 5.8 wt % at 80% RH measured by dynamic vapor sorption (DVS) (FIG. 4). A solid is considered moderately hygroscopic when water uptake at 25° C./80% RH is between 2-15 wt % based on criteria of European Pharmacopeia.
Form B of EP-1 trihydrate (x is 3) is a trihydrate as confirmed by single crystal analysis. The experimental XRPD pattern of Form B matches well with the simulated one from single crystal data (FIG. 6). This was also confirmed by DSC and TGA data (FIG. 7 and FIG. 8, respectively). DSC data indicates Form B dehydrates at ˜132° C. […] Form B is slightly hygroscopic as evidenced by a weight change of ˜0.3% between 0% and 95% RH (FIG. 9), (data collection was programmed from 95% RH-0% RH-95% RH at a step size of 10% RH at 25° C.).

Data set [2] in a line: Solubility in Simulated Gastric Fluid (SGF) at 37° C. Format: physicochemical. The protocol: To study if Form A and Form B would perform differently in stomach, the solubilities of Form A and Form B were measured in Simulated Gastric Fluid (SGF, see below for SGF preparation) at 37° C. In these experiments, about 100 mg Form A and 50 mg Form B were weighed into 20-ml glass vials, followed by addition of 4 ml SGF into each vial and the samples were stirred at 37° C. Aliquots were taken for solubility determination using HPLC after 15, 30, and 60 min, respectively. The remaining solids after each time point were subject to XRPD analysis.
Weigh appropriate amount of hydrochloride (HCl) and sodium chloride (NaCl) into a 1-L flask followed by addition of 1-L deionized water. The mixture was stirred until all solids are dissolved. Check pH value with a pH-meter and adjust the pH to 1.8 with HCl (1N) or NaOH (1N).

Molecule `CC(C)N(CC1O[C@@H](n2cnc3c(N)ncnc32)[C@H](O)[C@@H]1O)C1CC(CCc2nc3cc(C(C)(C)C)ccc3[nH]2)C1` (stereo partly drawn) [Form A, (2R,3R,4S,5R)-2-(6-amino-9H-purin-9-yl)-5-((((1r,3S)-3-(2-(5-(tert-butyl)-1H-benzo[d]imidazol-2-yl)ethyl)cyclobutyl)(isopropyl)amino)methyl)tetrahydrofuran-3,4-diol hydrate] showed a water adsorption in data set [1] of 5.8 wt %. Moreover, the “time of conversion to Form B in SGF” value in data set [2] is at most 15 min. The solubility (as a rule, the dissolved amount per volume that the medium holds) at 15 min in data set [2] (Simulated Gastric Fluid (SGF), pH 1.8, simulated gastric fluid, thermodynamic from solid, 15 min, calculated using free base content) is 5400 µg/mL. Moreover, the solubility at 30 min in data set [2] (Simulated Gastric Fluid (SGF), pH 1.8, simulated gastric fluid, thermodynamic from solid, 30 min, calculated using free base content) is 5500 µg/mL. In addition, the solubility at 60 min in data set [2] (Simulated Gastric Fluid (SGF), pH 1.8, simulated gastric fluid, thermodynamic from solid, 60 min, calculated using free base content) is 5300 µg/mL.
